# Experimental data as given in patent US6375942B1, “Skin healing ointment” (priority 1999, dated 2002).
# Tested on: severe persistent rash caused by poison ivy
# Assay: Case 1: ointment test on sufferer
# Type: in vivo, Human
# Conditions: adult; prescribed by dermatologist
# Source text: They then sought out other sufferers on whom to test their ointment. The results follow:
# Case 1: adult suffering from severe persistent rash caused by poison ivy. […] Application of ointment only once per day completely healed subject in 2½ days.
compound,measurement,value
CCCCC(=O)O[C@]1(C(=O)CO)[C@@H](C)C[C@H]2[C@@H]3CCC4=CC(=O)C=C[C@]4(C)[C@@]3(F)[C@@H](O)C[C@@]21C [valisone],outcome of prescribed treatment,without success
